From patent US8618080B2, “Immunomodulatory compounds and treatment of diseases related to an overproduction of inflammatory cytokines” (OM Pharma, priority 2006, dated 2013)

What was measured:
[1] = system: LACK-sensitized and challenged mice; assay: LACK-induced allergic asthma model, therapeutic i.p. treatment; format: in vivo
Method: The main differences compared to the previous (part a) protocol are: • Mice were treated with OM-197-MP-AC i.p. only on days 15, 17 and 19 (i.e. at least 1 week after the second sensitization) at the dose of 1 mg/Kg (20 μg per mouse). • The lung cytokines measured by multiplex analysis using FACSArray were IL-4, IL-5, IL-13, IFN-γ, and IL-10. Results: Total Cell Number and Eosinophils in BAL:
Two days after the last aerosol, mice were sacrificed and BAL cells harvested.
In order to further characterize the immune status of mice after therapeutic treatment with OM-197-MP-AC, we analyzed LACK-specific IgE in sera of treated mice and in those of untreated mice by ELISA. Whereas LACK-specific IgE levels increased 7-fold upon exposition to LACK aerosols, sera of OM-197-MP-AC-treated mice contained 2-fold less (p<0.05) LACK-specific IgE compared to untreated LACK challenged mice.
FIG. 8: Mice were therapeutically treated three times as described in the method section, lavages were performed in individual mice bled with a canula inserted into their trachea. Lungs were washed 3 times with 1 ml of warmed PBS. Cells were washed with PBS, resuspended in 300 μl, and counted using a Burker-Türk chamber. For differential BAL cell counts, cytospin preparations were made and stained with Wright/Giemsa coloration. The groups tested were: LACK-sensitized and PBS-challenged wt mice (Control), LACK-sensitized and challenged wt mice (Asthma), and OM-197-MP-AC-treated wt mice (OM-197). The total cell number in BAL was determined by microscopic examination of cytospin preparations stained with Wright/Giemsa coloration. The dotted line indicates throughout the graph the value obtained in untreated asthmatic animals.
FIG. 9: Percentage of eosinophils in BAL analyzed by microscopic examination of cytospin preparations stained with Wright/Giemsa coloration. Mice were therapeutically treated three times as described in the method section, cells from BAL were harvested as explained in FIG. 8. The (therapeutic) groups studied are the same as those used in FIG. 8. The dotted line indicates throughout the graph the value obtained in untreated asthmatic animals.
FIG. 10: To analyze lung cytokine contents, lungs were harvested and left lungs were used to prepare protein extracts. 400 μl were recovered for each left lung. Cytokines were measured by multiplex analysis using FACSArray, and results are given in pg/ml. The (therapeutic) groups studied are the same as those used in FIGS. 8 and 9. The dotted lines indicate throughout the graphs the values obtained in untreated asthmatic animals.

[2] = system: LACK-sensitised and -challenged BALB/c ByJ mice; assay: LACK-induced allergic asthma model, other routes of administration; format: in vivo
Method: 43 females BALB/c ByJ mice 6-week old were purchased from the Centre d'Elevage Janvier (CERJ, Le Genest-St-Isle, France). All the mice were sensitised by 2 i.p. injections of 10 μg LACK protein precipitated in 2 mg of Alum (PerBio Science France SAS, Brebières, France) at days 1 and 8 (Julia et al., 2002).
OM-197-MP-AC was given from day 0 to day 12 as described below. All the mice were challenged from day 16 to day 20 with either a solution of LACK (0.15%) or with PBS as indicated below.
Experimental groups were the following: • Group A: untreated, LACK-sensitised and PBS-challenged mice (3 mice) • Group B: untreated LACK-sensitised and -challenged mice (7 mice) • Group C: i.p. OM-197-MP-AC-treated, LACK-sensitised and -challenged mice (5 mice) • Group D: i.g. OM-197-MP-AC-treated, LACK-sensitised and -challenged mice (7 mice) • Group E: s.c. OM-197-MP-AC-treated, LACK-sensitised and -challenged mice (7 mice). • Group F: i.n. OM-197-MP-AC-treated, LACK-sensitised and -challenged mice (7 mice) • Group G: aerosols OM-197-MP-AC-treated, LACK-sensitised and -challenged mice (7 mice)
Mice of groups C, D, E, and G were treated on days: 0, 2, 3, 4, 7, 9, 10, 11, whereas mice of group F (intranasal route) were only treated on days 0, 4, 7, and 11.
Mice of groups C and E were treated i.p. and s.c. respectively with 1 mg/Kg (20 μg per mouse) of OM-197-MP-AC.
Mice of group D were treated intragastrically with 50 mg/Kg (1 mg per mouse) of OM-197-MP-AC.
Mice of group F were treated i.n. with 20[…]μg of OM-197-MP-AC in a volume of 20 μl (OM-197-MP-AC at 2 mg/ml, 10[…]μl/nostril.)
Mice of group G received aerosols of a solution of OM-197-MP-AC at 0.2% (2 mg/ml) for 10 minutes.
All the mice were bled by heart puncture 2 days after the last aerosol. Total IgE were quantified by ELISA using rat EM-95 anti-IgE mAbs as coating antibody and rat anti-IgE mAbs coupled to biotin as second antibody as described elsewhere (Julia et al., 2002).
Individual mice were bled and a canula was inserted into their trachea. Lungs were washed 3 times with 1 ml of warmed PBS. Cells were washed with PBS, resuspended in 300 μl, and counted using a Burker-Türk chamber. For differential BAL cell counts, cytospin preparations were made and stained with Wright/Giemsa.

[3] = system: Limulus Amoebocyte Lysate; assay: Limulus Amoebocyte Lysate chromogenic test (LAL endotoxicity); format: biochemical
Method: Endotoxicity was determined first for OM-197-MP-AC and for OM-294-DP by the Limulus Amoebocyte Lysate chromogenic test (Chromogenic-LAL of Bio-Whittaker, kit n° 50-65OU).
The enzymatic reaction is carried out at 37° C. and the formation of the chromogen over time is measured at 405 nm. The time necessary to reach 0.2 units of D.O. is recorded and the endotoxic activity calculated in relation to a LPS standard (standard curve). The results are expressed in EU (Endotoxin Unit) in relation to a standardized preparation of E. coli LPS (1 EU corresponds to 0.08 ng equivalent LPS).

[4] = 1 mg/Kg i.p. therapeutic, versus untreated mice

## CCCCCCCCCCCC(=O)O[C@H](CCCCCCCCCCC)CC(=O)N[C@@H](CCOP(=O)(O)O)C(=O)NCCC[C@H](COC(=O)CCCCCN)NC(=O)C[C@H](O)CCCCCCCCCCC [OM-197-MP-AC, (3S, 9R)-3-[(R)-3-dodecanoyloxytetradecanoylamino]-4-oxo-5-aza-9-[(R)-3-hydroxytetradecanoylamino]-decan-1, 10-diol 1-dihydrogenophosphate 10-(6-aminohexanoate)]
[1]; 1 mg/Kg i.p. on days 15, 17, 19 (therapeutic)
  Eosinophils in BAL, less than untreated mice: 40-45 fold less
[1]; 1 mg/Kg i.p. on days 15, 17, 19 (therapeutic), versus untreated mice
  BAL cell recruitment impaired: 90%
[1]; 1 mg/Kg i.p. therapeutic
  Lung IFN-γ levels, treated versus untreated mice: reduced
  Lung IL-10 amounts upon treatment: not significantly increased
[1]; 1 mg/Kg i.p. therapeutic, ELISA
  LACK-specific IgE in sera, less than untreated LACK challenged mice: 2 fold less
[1]; [4]
  Lung IL-4 levels reduced: 90%
  Lung IL-5 amounts reduced: 70%
  Lung IL-13 amounts reduced: 85%
[2]; aerosols of 0.2% solution, 10 minutes
  Eosinophils in BAL: same tendency as i.n. treated animals
[2]; i.g. 50 mg/Kg, unformulated
  BAL cell contents versus untreated mice: did not yield differences
[2]; i.n. 20 μg per mouse
  Eosinophil frequencies and numbers in BAL: reduced by half
  Total serum IgE: reduced titers
[2]; i.p. 1 mg/Kg
  Eosinophils in BAL: both reduced percentage and reduced numbers
  Total IgE: reduced amounts
[2]; s.c. 1 mg/Kg
  BAL cell contents versus untreated mice: did not yield differences
[3]
  Limulus activity in the chromogenic LAL assay: very little or no Limulus activity
